Assay [1] addresses T1, Dihydrofolate reductase (Homo sapiens, UniProt P00374).
T1 sequence (P00374 whole entry): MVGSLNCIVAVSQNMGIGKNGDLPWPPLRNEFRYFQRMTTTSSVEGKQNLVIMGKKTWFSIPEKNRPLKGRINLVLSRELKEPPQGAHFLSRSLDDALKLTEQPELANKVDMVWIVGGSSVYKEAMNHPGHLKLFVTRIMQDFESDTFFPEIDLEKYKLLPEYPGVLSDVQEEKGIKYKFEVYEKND
In words: (§1) Inhibition Assay: Antibacterial activity as measured by the minimal inhibitory concentrations (MIC) and minimal bactericidal concentrations of compounds are well known (see., e.g., National Committee for Clinical Laboratory Standards 2000 Performance standards for antimicrobial disk susceptibility tests: approved standard, 7th ed. M2-A7, vol. 20, no. 1, Committee for Clinical Laboratory Standards, Wayne, Pa.).

In assay [2] the target is Dihydrofolate reductase (Staphylococcus aureus, UniProt P0A017). The description is as §1.
Sequence of Dihydrofolate reductase (Staphylococcus aureus, UniProt P0A017) (P0A017 whole entry): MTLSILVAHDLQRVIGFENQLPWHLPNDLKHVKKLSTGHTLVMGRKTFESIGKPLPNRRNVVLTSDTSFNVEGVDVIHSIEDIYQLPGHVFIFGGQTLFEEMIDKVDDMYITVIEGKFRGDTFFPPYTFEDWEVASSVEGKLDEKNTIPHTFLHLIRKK

The results in this text go back to ChEMBL document CHEMBL3638993, “Dihydrofolate reductase inhibitors” (2014).

Consider `Cc1c(C(=O)OC(C)(C)C)nc(-c2cccs2)n1-c1ccc2c(N)nc(N)nc2c1`, for which the figures for the Ki in assay [1] and in assay [2] were 1910 nM and 0.2 nM, respectively.

Usually Ki stands for the equilibrium dissociation constant of an inhibitor or competing ligand from its target.
